Results published in patent US12096769B2, “Mechanism of urea/solid acid interaction under storage conditions and storage stable solid compositions comprising urea and acid” (ECOLAB USA INC., priority 2017, dated 2024).

How the values were obtained:
Assay type in all cases: physicochemical
[1] = Swelling of tablets made with various acids as the acid filler, Example 2
[2] = pH in 17 grains per gallon (gpg) water, Example 5; conditions: Dose 625 ppm
Source text: The pH of the urea/citric acid complex was also compared to those of citric acid and monosodium citrate.

[3] = Tablet dimensional change at 40° C. and 90% humidity, Example 6; conditions: acid filler of the formulation
Protocol: A formulation using urea/citric acid complex as the acid filler were compared to those using urea or a mixture of urea and citric acid. In this Example, tablets were made according to the formulations in Table 8, then placed at 40° C. and 90% humidity. Their dimensional changes were measured during two-weeks period of time.

[4] = Block stability in a dispenser (swelling after 1 minute soak in water), Example 7; conditions: soaked in 1 inch of water at 43.3° C. (110° F.) for 1 minute; up to 18 hours
Protocol: Various blocks made from different formulations were screened for their block stability in a dispenser. During the experiments, the blocks were soaked in 1 inch of water at 43.3° C. (110° F.) for 1 minute, then measured for their swelling as a function of time.

NC(N)=O.O=C(O)CC(O)(CC(=O)O)C(=O)O [Urea-Citrate, urea-citric acid complex]
Swelling of the tablet using the acid as the filler ([1]; at 2 weeks, 40° C.): 0.5% at 2 weeks
pH in 17 gpg Water [2]: 4.8
Storage stability as measured by percentage swelling (in words) [3]: best storage stability
Swelling of the block after soak (in words) [4]: swelling is minimal

CC(O)C(=O)O (centres unmarked) [Lactic Acid]
Swelling of the tablet using the acid as the filler ([1]; 4 Week at 40° C.): Weeping
State of the tablet using the acid as the filler ([1]; at 50° C.): melted

O=C(O)CC(O)(CC(=O)O)C(=O)O [Citric Acid]
pH in 17 gpg Water [2]: 4.45

O=C(O)CC(=O)O [Malonic Acid]
Swelling of the tablet using the acid as the filler ([1]; 4 Week at 40° C.): Weeping

O=C(O)CC(O)C(=O)O (centres unmarked) [Malic Acid]
Swelling of the tablet using the acid as the filler ([1]; 4 Week at 40° C.): ~5%

O=C([O-])CC(O)(CC(=O)O)C(=O)O.[Na+] [Monosodium citrate]
pH in 17 gpg Water [2]: 5.6

O=C(O)/C=C\C(=O)O [Maleic Acid]
Swelling of the tablet using the acid as the filler ([1]; 4 Week at 40° C.): Melted
